Assay results: article PMC8302598, “Rapid discovery of self-assembling peptides with one-bead one-compound peptide library” (Nature Communications, 2021)

Assays:
[1] = Critical micelle concentration (CMC); type: physicochemical; details: soluble HPLC-purified peptide, aqueous
Method: To estimate the propensity of the identified peptides to self-assemble, the critical micelle concentrations (CMC) of the eight positive peptides and four negative peptides were determined, and the results are shown in Table 1 and Supplementary Figs. 13, 14. The CMC of all the eight positive peptides were detectable and found to range between 8.4 and 14.8 μM, indicating the propensity for these peptides to self-assemble under aqueous environment. […] Hydrophobicity of peptides can be predicted by the value of GRAVY[28] with more negative value for more hydrophilic peptides. Of the four negative assembling peptides, two have a negative GRAVY value. […] Experimental testing, such as the screening strategy described in this work, is needed. This is because multiple factors, including hydrophobicity, hydrogen-bonding, electrostatic interactions, and positions of each residue within the peptides, all contribute to the assembling and final morphology of the self-assembled nano-structure.

[2] = TEM morphology and size of peptide nano-assemblies over time; type: physicochemical; details: for Initial nanostructure (TEM): DMSO stock 5 mM diluted 100X with water, 50 μM (legend: 40 μM), 1% DMSO, fixed immediately (0 h); for Nanoparticle size by TEM, 0 h / Nanoparticle size by TEM, 4 h: H2O with 1% DMSO, 40 μM / 50 μM
Text: Self-assembling peptides with good biocompatibility may be used to construct nanocarriers for drug delivery. We recently reported the use of FFVLK, the reverse sequence of KLVFF, as a self-aggregating β-sheet forming domain for the delivery of HER2 targeting peptides for successful treatment of breast cancer in xenograft models. Such FFVLK containing peptide is able to self-assemble into nanoparticles. Upon intravenous administration, the FFVLK-nanoparticle was able to transform into nanofibrillar network when encountering HER2 at the tumor sites. To investigate the morphology of the nano-assembly formed by the eight self-assembling peptides, we dissolved each of these peptides in DMSO (5 mM) and then diluted them 100X with water at a final peptide concentration of 50 μM to induce spontaneous self-assembly. Each sample was fixed immediately after peptide solution preparation and at 4 h time point for subsequent TEM processing and analysis. As clearly shown in Fig. 4a, all eight self-assembling peptides initially formed some nanostructures: nanoparticles for ITSVV, YFTEF, ISDNL, LDFPI, FAGFT, FGFDP, and FTISD; nanofibers for FFVDF. […] LDFPI (8 nm) maintained the particulate morphology without changing of diameter in 4 h. FFVDF formed nanofibers at 0 and 4 h. […] Time-dependent size variations of pentapeptides in water were further confirmed by DLS spectra (Supplementary Fig. 18). The initial diameters of nanoparticles formed by seven pentapeptides were larger than that observed by TEM, probably due to hydration radius. The size of the nanostructure increased over time, correlating well with the morphologic transformation. […] Circular dichroism (CD) was used to monitor the secondary structures of the nano-assembly of the eight self-assembling peptides over time (Supplementary Fig. 20).
Pentapeptides monomers were dissolved in DMSO at a concentration of 5.0 mM, followed by quick injection into water at a volume ratio of 1:99 for DMSO and H2O to obtain the nanomaterials solution (50 μM). For 30 mM pentapeptide solution, the pentapeptide was dissolved in water and sonicated for 3 min.
The pentapeptide solution with the concentration of 20 μM (10 μL) was placed dropwise onto a copper mesh for 5 min, then most of the liquid was removed through a filter paper. Ten microliters of uranyl acetate solution were employed to stain the samples for 5 min, followed by drying the spare liquid with the filter. Finally, the copper mesh was washed with 10 μL of deionized water, which was blotted after staining and drying at room temperature. All of the samples were observed by TEM (Tecnai G2 20 S-TWIN) at an accelerating voltage of 200 kV.

[3] = tested on: HeLa cells; experiment: CCK-8 cell viability assay; type: cell-based; details: incubation 24 and 72 h, n=3
Method: Finally, we examined the biological effects and cellular distribution of the eight self-assembling peptides on HeLa cells. […] In order to observe the nanomaterials under fluorescent microscopy, each peptide preparation was spiked with 3% of the same peptide N-terminally labeled with FITC, and then added to HeLa cells at a final concentration of 40 μM. […] After 4 h of incubation with the peptide assemblies, the cells were observed under a fluorescent microscope (Figs. 4c, d and Supplementary 22). […] It is important to note that LDFPI nanoparticle was small (8 nm diameter) even after 4 h incubation. Its small size may in part explain its ability to pass through the nuclear pore complexes[32],[33]. […] To evaluate the cell uptake mechanism of peptide assemblies (YFTEF, ISDNL, and FGFDP) into the cytoplasm, we treated the cells at 4 °C or with various endocytosis inhibitors (Supplementary Fig. 23).
TentaGel S Resin was purchased from Rapp Polymere (Germany, loading 0.31 mmol/g). 9-Fluorenylmethoxycarbonyl (Fmoc)-protected amino acids, 2-(1H-benzotriazole-1-yl)-1,1,3,3- tetramethyluronium hexafluoro-phosphate (HBTU), and Wang resin were obtained from GL Biochem (China). Trifluoroacetic acid (TFA), fluorescein isothiocyanate (FITC), N-methyl morpholine (NMM), piperidine, and N,N′-dimethylformamide (DMF) were all from Beijing Chemical Plant (China). 1,2-Ethanedithiol (EDT) was purchased from Alfa Aesar (USA). Dimethyl sulfoxide (DMSO) was purchased from Aldrich Chemical Co. and used without further purification. Cyanogen bromide (CNBr) was from J&K Chemical (China). The HeLa cell lines were received from the Cell Culture Center of the Institute of Basic Medical Sciences, Chinese Academy of Medical Sciences (Beijing, China). Cell culture medium and fetal bovine serum were from WisentInc (Multicell, WisentInc, St. Bruno. The cell counting kit-8 assay (CCK-8) (Beyotime Institute of Biotechnology, China) was used. Hela cells were maintained Dulbecco’s modified eagle’s medium (DMEM) with 10% fetal bovine serum and 1% penicillin. All cells were cultured in a humidified atmosphere containing 5% CO2 at 37 °C.
Supplementary Figure 21 . a-h. CCK-8 cell viability assay for 8 pentapeptides (FTISD, ITSVV, YFTEF, ISDNL , LDFPI, FAGFT,
FGFDP, FFVDF) after incubation with HeLa cells for 24 and 72 h.
Standard Deviatio n (n=3).
(1 picture or pasted object on this page, not shown here)

## FAGFT [self-assembling pentapeptide identified from OBOC library]
[1]
  CMC: 13.9 µM
[2]
  Initial nanostructure (TEM): nanoparticles
  Nanoparticle size by TEM, 0 h: 10 nm
  Nanoparticle size by TEM, 4 h: 15 nm
[3]
  Cell toxicity (CCK-8 cell viability): No cell toxicity was observed

## FFVDF [self-assembling pentapeptide identified from OBOC library, forms nanofibers]
[1]
  CMC: 14.4 µM
[2]
  Initial nanostructure (TEM): nanofibers
[3]
  Cell toxicity (CCK-8 cell viability): No cell toxicity was observed

## FGFDP [self-assembling pentapeptide identified from OBOC library]
[1]
  CMC: 14.8 µM
[2]
  Initial nanostructure (TEM): nanoparticles
[3]
  Cell toxicity (CCK-8 cell viability): No cell toxicity was observed

## FTISD [self-assembling pentapeptide identified from OBOC library]
[1]
  CMC: 10.04 µM
[2]
  Initial nanostructure (TEM): nanoparticles
[3]
  Cell toxicity (CCK-8 cell viability): No cell toxicity was observed

## ISDNL [self-assembling pentapeptide identified from OBOC library]
[1]
  CMC: 9.4 µM
[2]
  Initial nanostructure (TEM): nanoparticles
[3]
  Cell toxicity (CCK-8 cell viability): No cell toxicity was observed

## ITSVV [self-assembling pentapeptide identified from OBOC library]
[1]
  CMC: 14.8 µM
[2]
  Initial nanostructure (TEM): nanoparticles
  Nanoparticle size by TEM, 4 h: ~ 300 nm
[3]
  Cell toxicity (CCK-8 cell viability): No cell toxicity was observed

## LDFPI [self-assembling pentapeptide identified from OBOC library]
[1]
  CMC: 8.4 µM
[2]
  Initial nanostructure (TEM): nanoparticles
  Nanoparticle size by TEM, 0 h: 8 nm
  Nanoparticle size by TEM, 4 h: 8 nm
[3]
  Cell toxicity (CCK-8 cell viability): No cell toxicity was observed

## YFTEF [self-assembling pentapeptide identified from OBOC library]
[1]
  CMC: 11.4 µM
[2]
  Initial nanostructure (TEM): nanoparticles
  Nanoparticle size by TEM, 0 h: 41 nm
  Nanoparticle size by TEM, 4 h: 75 nm
[3]
  Cell toxicity (CCK-8 cell viability): No cell toxicity was observed
